Assay results published in patent publication US4439434A, “Cephalosporin derivative and pharmaceutical composition containing the derivative” (Kureha Kagaku Kogyo Kabushiki Kaisha, priority 1981, dated 1984).
In brackets after ≈: the same amount, converted by molar mass.

Assays:
Escherichia coli = experiment: Effect on the intestinal bacterial colonies: Escherichia coli in feces; format: in vivo; conditions: mice; for Logarithmic value of the number of bacterial cells per one g of feces, E. coli: oral 500 mg/kg/day for two consecutive days, feces one day after administration
Method: (§1) Each of the cephalosporin derivatives of the invention prepared in Examples 1 to 10 was orally administered to mice (one group consisting of five female ICR mice of 6-week-old) for two consecutive days at a dose of 500 mg/kg/day.
(§2) Before and one day after the administration, feces of each mouse were collected and diluted with an anaerobic diluent (phosphoric buffer solution) of 100 times volume and the diluted feces were ground. 0.1 ml of the diluted and ground feces was smeared on each culture medium shown in Table 1 and cultured aerobically or anaerobically (according to the anaerobic glove box method) under each condition shown in Table 1 and the number of each bacterium shown in Table 1 was counted.
DHL agar aerobic, 37° C.,

Pseudomonas aeruginosa = experiment: Effect on the intestinal bacterial colonies: Pseudomonas aeruginosa in feces; format: in vivo; conditions: mice, oral 500 mg/kg/day for two consecutive days, feces one day after administration
Method: as §1, §2
NAC agar aerobic, 37° C.,

Streptococcus spp. = experiment: Effect on the intestinal bacterial colonies: Streptococcus spp. in feces; format: in vivo; conditions: mice, oral 500 mg/kg/day for two consecutive days, feces one day after administration
Method: as §1, §2
TATAC agar aerobic, 37° C.,

[1] = system: Lactobacillus acidophilus; experiment: Effect on the intestinal bacterial colonies: Lactobacillus acidophilus in feces; format: in vivo; conditions: mice; for Logarithmic value of the number of bacterial cells per one g of feces, L. acidophilus: oral 500 mg/kg/day for two consecutive days, feces one day after administration
Method: as §1, §2
Lactobacillus acidophilus
LBS agar anaerobic, 37° C.,

Lactobacillus bifidus = experiment: Effect on the intestinal bacterial colonies: Lactobacillus bifidus in feces; format: in vivo; conditions: mice, oral 500 mg/kg/day for two consecutive days, feces one day after administration
Method: as §1, §2
BS agar anaerobic, 37° C.,

Bacteroides = experiment: Effect on the intestinal bacterial colonies: Bacteroides in feces; format: in vivo; conditions: mice, oral 500 mg/kg/day for two consecutive days, feces one day after administration
Method: as §1, §2
Bacteroides NBGT agar anaerobic, 37° C.,

[2] = system: Escherichia coli IFO 12734; experiment: Antibacterial activity (MIC, agar plate) against E. coli; format: cell-based; conditions: Escherichia coli IFO 12734, Mueller-Hinton agar, 37° C., 18 to 24 hours; unit assumed
Method: (§3) Antibacterial activity of each of the cephalosporin derivatives of the invention prepared in Examples 1 to 10 was examined against the following two bacteria according to the standard method of Japan Society of Chemitherapy: Escherichia coli IFO 12734 and Staphylococcus aureus IAM 1011.
(§4) Each bacterial strain was inoculated into the Mueller-Hinton's culture medium and cultured at 37° C. for 18 to 48 hours. The cultured medium was diluted so as to contain 1×10^6 cells of the bacteria per one ml, and the obtained medium was used as the bacterial specimen.
(§5) Agar plates were prepared by adding one part by weight of each solution of the cephalosporin derivative of the invention at a predetermined concentration to nine parts by weight of Mueller-Hinton's culture medium.
(§6) A loopful amount of the bacterial specimen prepared above was smeared to make a streak of about 2 cm on each agar plate prepared above and cultured at 37° C. for 18 to 24 hours.
(§7) The minimum concentration for completely inhibiting proliferation of the bacteria (referred to as MIC) was determined.

[3] = system: Staphylococcus aureus IAM 1011; experiment: Antibacterial activity (MIC, agar plate) against Staph. aureus; format: cell-based; conditions: Staphylococcus aureus IAM 1011, Mueller-Hinton agar, 37° C., 18 to 24 hours; unit assumed
Method: as §3, §4, §5, §6, §7

[4] = system: Staphylococcus aureus IAM 1011; experiment: Activation by rat liver homogenate (S-9 mix), proliferation-inhibiting circle, penicillin cup method; format: cell-based; conditions: incubated with rat liver S-9 mix, 37° C. 20 min; circle diameter relative to the starting compound
Method: As an activating enzyme of metabolism, a rat liver homogenate (S-9, manufactured by Oriental Yeast Company, Japan) was used in the following composition per 1 ml (hereinafter referred to as S-9 mix). 0.1 ml of the solution of each of the cephalosporin derivatives of the invention prepared in Examples 1 to 10 at a concentration of 100 μg/ml was mixed with 0.9 ml of S-9 mix or 0.9 ml of 0.1 M phosphoric buffer solution (as a control) and the obtained mixture was incubated at 37° C. for 20 min. with shaking. Staphylococcus aureus IAM 1011 was inoculated into a Mueller-Hinton's culture medium and cultured at 37° C. for 18 hours. The culture medium was adjusted to a cell concentration of 1×10^8 per 1 ml and mixed with 50 times by volume of Mueller-Hinton's agar culture medium to obtain an agar plate. A penicillin cup of 8 mm in diameter was placed on the agar plate prepared above, and into the cup 0.1 ml of the mixture containing the cephalosporin derivative prepared above was introduced and allowed to stand at 4° C. for 2 hours, and then cultured at 37° C. for 18 hours to measure the diameter of a circle in which the proliferation of bacteria was inhibited (proliferation-inhibiting circle). In Table 4, the proliferation-inhibiting index is shown in the ratio (%) of the diameter of the proliferation-inhibiting circle obtained by using each of the cephalosporin derivatives of the invention to that obtained by using each of the starting compound in preparing each of the cephalosporin derivatives of the invention.

[5] = oral 500 mg/kg/day for two days, feces

SMILES	MIC E. coli [2] [µg/mL]	MIC Staph. aureus [3] [µg/mL]	Logarithmic value of the number of bacterial cells per one g of feces, E. coli (Escherichia coli)	Logarithmic value of the number of bacterial cells per one g of feces, Ps. aeruginosa (Pseudomonas aeruginosa)	Logarithmic value of the number of bacterial cells per one g of feces, Strept. spp. (Streptococcus spp.)	Logarithmic value of the number of bacterial cells per one g of feces, L. acidophilus [1]	Logarithmic value of the number of bacterial cells per one g of feces, L. bifidus (Lactobacillus bifidus)	Logarithmic value of the number of bacterial cells per one g of feces, Bacteroides (Bacteroides)	Proliferation-inhibiting index (%) After adding S-9 mix [4]	change in the number of Escherichia coli as compared to that before administration (Escherichia coli; [5])	change in the number of Lactobacillus acidophilus [1, 5]
CCCCOC(=O)c1ccc(NC(=O)C2=C(COC(C)=O)CSC3C(NC(=O)Cc4cccs4)C(=O)N23)cc1 (centres unmarked) [Example 4, N-(4-carbo-n-butoxyphenyl)-7-(thienyl-2-acetamido)cephalosporanic acid amide]	≥ 100	≥ 12.5	6.4	< 3.0	6.7	9.1	8.5	8.1	++ (33-66)	–	–
CC(=O)OCC1=C(C(=O)Nc2ccc(CC(=O)O)cc2)N2C(=O)C(NC(=O)Cc3cccs3)C2SC1 (centres unmarked) [Example 5, N-(4-carboxymethylphenyl)-7-(thienyl-2-acetamido)cephalosporanic acid amide]	≥ 100	1.56 (≈ 2.95 µM)	6.5	< 3.0	6.8	9.1	8.4	8.2	+++ (66-100)	–	–
COC(=O)Cc1ccc(NC(=O)C2=C(COC(C)=O)CSC3C(NC(=O)Cc4cccs4)C(=O)N23)cc1 (centres unmarked) [Example 6, N-(4-carbomethoxymethylphenyl)-7-(thienyl-2-acetamido)cephalosporanic acid amide]	≥ 100	≥ 12.5	6.8	< 3.0	6.5	8.9	8.3	8.8	+++ (66-100)	–	–
CC(=O)OCC1=C(C(=O)O)N2C(=O)[C@@H](NC(=O)Cc3cccs3)[C@H]2SC1 [Cephalotin, cephalotin, reference compound]	–	–	9.9	< 3.0	9.0	4.1	9.2	7.2	–	increased	decreased
CCOC(=O)c1ccc(NC(=O)C2=C(COC(C)=O)CSC3C(NC(=O)Cc4cccs4)C(=O)N23)cc1 (centres unmarked) [Example 3, N-(4-carboethoxyphenyl)-7-(thienyl-2-acetamido)cephalosporanic acid amide]	≥ 100	≥ 12.5	6.5	< 3.0	6.5	9.0	8.3	8.1	++ (33-66)	–	–

Continued, in another order:

MIC E. coli [2] [µg/mL]	MIC Staph. aureus [3] [µg/mL]	SMILES	Logarithmic value of the number of bacterial cells per one g of feces, E. coli (Escherichia coli)	Logarithmic value of the number of bacterial cells per one g of feces, Ps. aeruginosa (Pseudomonas aeruginosa)	Logarithmic value of the number of bacterial cells per one g of feces, Strept. spp. (Streptococcus spp.)	Logarithmic value of the number of bacterial cells per one g of feces, L. acidophilus [1]	Logarithmic value of the number of bacterial cells per one g of feces, L. bifidus (Lactobacillus bifidus)	Logarithmic value of the number of bacterial cells per one g of feces, Bacteroides (Bacteroides)	Proliferation-inhibiting index (%) After adding S-9 mix [4]	change in the number of Escherichia coli as compared to that before administration (Escherichia coli; [5])	change in the number of Lactobacillus acidophilus [1, 5]
≥ 100	≥ 12.5	COC(=O)CNC(=O)c1ccc(NC(=O)C2=C(COC(C)=O)CSC3C(NC(=O)Cc4cccs4)C(=O)N23)cc1 (centres unmarked) [Example 9, N-(4-carbomethoxymethylcarbamoylphenyl)-7-(thienyl-2-acetamido)cephalosporanic acid amide]	6.5	< 3.0	7.1	9.3	8.6	8.1	+++ (66-100)	–	–
≥ 100	6.25 (≈ 11.2 µM)	CCOC(=O)Cc1ccc(NC(=O)C2=C(COC(C)=O)CSC3C(NC(=O)Cc4cccs4)C(=O)N23)cc1 (centres unmarked) [Example 7, N-(4-carboethoxymethylphenyl)-7-(thienyl-2-acetamido)cephalosporanic acid amide]	6.4	< 3.0	6.6	8.9	8.3	8.8	+++ (66-100)	–	–
≥ 100	12.5 (≈ 21.8 µM)	CC(=O)OCC1=C(C(=O)Nc2ccc(C(=O)NCC(=O)O)cc2)N2C(=O)C(NC(=O)Cc3cccs3)C2SC1 (centres unmarked) [Example 8, N-(4-carboxymethylcarbamoylphenyl)-7-(thienyl-2-acetamido)cephalosporanic acid amide]	6.4	< 3.0	6.8	9.1	8.5	8.1	++ (33-66)	–	–
≥ 100	≥ 12.5	COC(=O)c1ccccc1NC(=O)C1=C(COC(C)=O)CSC2C(NC(=O)Cc3cccs3)C(=O)N12 (centres unmarked) [Example 10, N-(2-carbomethoxyphenyl)-7-(thienyl-2-acetamido)cephalosporanic acid amide]	6.5	< 3.0	6.4	9.0	8.2	8.0	+ (1-33)	–	–
≥ 100	≥ 12.5	CC(=O)OCC1=C(C(=O)Nc2ccc(O)cc2)N2C(=O)C(NC(=O)Cc3cccs3)C2SC1 (centres unmarked) [Example 1, N-(4-hydroxyphenyl)-7-(thienyl-2-acetamido)cephalosporanic acid amide]	6.5	< 3.0	6.3	8.9	8.2	8.7	+++ (66-100)	–	–
